Test results published in PMC7265341, “Quantifying CDK inhibitor selectivity in live cells” (Nature Communications, 2020).
Like-named read-outs stand apart in the source and are kept apart here.

Assays:
[1] = molecular target: CDK20/Cyclin H (Homo sapiens, UniProt Q8IZL9); test: NanoBRET live-cell target engagement, NanoLuc-CDK20/Cyclin H in HEK-293; type: binding; conditions: CDK20/H; 10µM
[2] = molecular target: CDK19/Cyclin C (Homo sapiens, UniProt Q9BWU1); test: NanoBRET live-cell target engagement, NanoLuc-CDK19/Cyclin C in HEK-293; conditions: CDK19/C, 10µM
[3] = molecular target: CDK5/CDK5R1 (Homo sapiens, UniProt Q00535); test: NanoBRET live-cell target engagement, CDK5-NanoLuc/CDK5R1 in HEK-293; type: binding; conditions: CDK5/CDK5R1
[4] = molecular target: CDK16/Cyclin Y (Homo sapiens, UniProt Q00536); test: NanoBRET live-cell target engagement, CDK16-NanoLuc/Cyclin Y in HEK-293; type: binding; conditions: CDK16/Y
[5] = molecular target: CDK18/Cyclin Y (Homo sapiens, UniProt Q07002); test: NanoBRET live-cell target engagement, CDK18-NanoLuc/Cyclin Y in HEK-293; type: binding; conditions: CDK18/Y
[6] = molecular target: CDK17/Cyclin Y (Homo sapiens, UniProt Q00537); test: NanoBRET live-cell target engagement, CDK17-NanoLuc/Cyclin Y in HEK-293; type: binding; conditions: CDK17/Y
[7] = molecular target: CDK4/Cyclin D1 (Homo sapiens, UniProt P11802); test: NanoBRET live-cell target engagement, NanoLuc-CDK4/Cyclin D1 in HEK-293; type: binding; conditions: CDK4/D1
[8] = molecular target: CDK15/Cyclin Y (Homo sapiens, UniProt Q96Q40); test: NanoBRET live-cell target engagement, NanoLuc-CDK15/Cyclin Y in HEK-293; type: binding; conditions: CDK15/Y
[9] = molecular target: CDK1/Cyclin E1 (Homo sapiens, UniProt P06493); test: NanoBRET live-cell target engagement, CDK1-NanoLuc/Cyclin E1 in HEK-293; type: binding; conditions: CDK1/E1
[10] = molecular target: CDK13/Cyclin K (Homo sapiens, UniProt Q14004); test: NanoBRET live-cell target engagement, CDK13-NanoLuc/Cyclin K in HEK-293; type: binding; conditions: CDK13/K, 10µM
[11] = molecular target: CDK9/Cyclin K (Homo sapiens, UniProt P50750); test: NanoBRET live-cell target engagement, NanoLuc-CDK9/Cyclin K in HEK-293; type: binding; conditions: CDK9/K, 10µM
[12] = molecular target: CDK11B/Cyclin L2 (Homo sapiens, UniProt P21127); test: NanoBRET live-cell target engagement, CDK11B-NanoLuc/Cyclin L2 in HEK-293; type: binding; conditions: CDK11b/L2, 10µM
[13] = molecular target: CDK6/Cyclin D1 (Homo sapiens, UniProt Q00534); test: NanoBRET live-cell target engagement, NanoLuc-CDK6/Cyclin D1 in HEK-293; type: binding; conditions: CDK6/D1
[14] = molecular target: CDK12/Cyclin K (Homo sapiens, UniProt Q9NYV4); test: NanoBRET live-cell target engagement, CDK12-NanoLuc/Cyclin K in HEK-293; type: binding; conditions: CDK12/K
[15] = molecular target: CDK3/Cyclin E1 (Homo sapiens, UniProt Q00526); test: NanoBRET live-cell target engagement, CDK3-NanoLuc/Cyclin E1 in HEK-293; type: binding; conditions: CDK3/E1
[16] = molecular target: T1, CDK11A/Cyclin L2 (Homo sapiens, UniProt Q9UQ88); test: NanoBRET live-cell target engagement, CDK11A-NanoLuc/Cyclin L2 in HEK-293; type: binding; conditions: CDK11a/L2, 10µM
T1 sequence (Q9UQ88 1-783): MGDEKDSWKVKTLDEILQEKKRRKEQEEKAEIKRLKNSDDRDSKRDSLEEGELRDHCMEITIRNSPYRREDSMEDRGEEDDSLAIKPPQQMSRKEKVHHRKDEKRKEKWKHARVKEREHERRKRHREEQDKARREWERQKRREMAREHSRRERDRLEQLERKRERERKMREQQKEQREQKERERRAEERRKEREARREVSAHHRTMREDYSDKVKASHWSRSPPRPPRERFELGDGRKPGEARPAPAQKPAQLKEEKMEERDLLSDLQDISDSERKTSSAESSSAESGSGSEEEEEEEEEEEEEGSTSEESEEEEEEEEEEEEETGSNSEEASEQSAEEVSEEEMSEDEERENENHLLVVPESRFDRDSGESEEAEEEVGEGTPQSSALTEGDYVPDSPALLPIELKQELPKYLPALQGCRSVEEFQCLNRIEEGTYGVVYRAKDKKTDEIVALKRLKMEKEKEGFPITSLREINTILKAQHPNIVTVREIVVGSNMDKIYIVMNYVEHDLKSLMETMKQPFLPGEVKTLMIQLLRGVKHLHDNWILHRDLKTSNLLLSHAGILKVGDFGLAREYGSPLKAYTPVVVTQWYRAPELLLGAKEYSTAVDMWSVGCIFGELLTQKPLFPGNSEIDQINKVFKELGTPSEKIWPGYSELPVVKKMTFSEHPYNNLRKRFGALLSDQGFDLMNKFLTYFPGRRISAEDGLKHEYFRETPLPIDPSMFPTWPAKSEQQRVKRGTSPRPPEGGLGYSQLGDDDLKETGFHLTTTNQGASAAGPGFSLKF

[17] = molecular target: CDK10/Cyclin L2 (Homo sapiens, UniProt Q15131); test: NanoBRET live-cell target engagement, CDK10-NanoLuc/Cyclin L2 in HEK-293; conditions: CDK10/L2, 10µM
[18] = molecular target: CDK8/Cyclin C (Homo sapiens, UniProt P49336); test: NanoBRET live-cell target engagement, NanoLuc-CDK8/Cyclin C in HEK-293; type: binding; conditions: CDK8/C, 10µM
[19] = n=3 average ± SEM, n=2 average to 2 significant figures, read-out: IC50 (nM) Average*
[20] = read-out: IC50 (nM) Replicate 1
[21] = read-out: IC50 (nM) Replicate 2

CDK12/Cyclin K, sequence (Q9NYV4 1-1481 isoform Q9NYV4-2): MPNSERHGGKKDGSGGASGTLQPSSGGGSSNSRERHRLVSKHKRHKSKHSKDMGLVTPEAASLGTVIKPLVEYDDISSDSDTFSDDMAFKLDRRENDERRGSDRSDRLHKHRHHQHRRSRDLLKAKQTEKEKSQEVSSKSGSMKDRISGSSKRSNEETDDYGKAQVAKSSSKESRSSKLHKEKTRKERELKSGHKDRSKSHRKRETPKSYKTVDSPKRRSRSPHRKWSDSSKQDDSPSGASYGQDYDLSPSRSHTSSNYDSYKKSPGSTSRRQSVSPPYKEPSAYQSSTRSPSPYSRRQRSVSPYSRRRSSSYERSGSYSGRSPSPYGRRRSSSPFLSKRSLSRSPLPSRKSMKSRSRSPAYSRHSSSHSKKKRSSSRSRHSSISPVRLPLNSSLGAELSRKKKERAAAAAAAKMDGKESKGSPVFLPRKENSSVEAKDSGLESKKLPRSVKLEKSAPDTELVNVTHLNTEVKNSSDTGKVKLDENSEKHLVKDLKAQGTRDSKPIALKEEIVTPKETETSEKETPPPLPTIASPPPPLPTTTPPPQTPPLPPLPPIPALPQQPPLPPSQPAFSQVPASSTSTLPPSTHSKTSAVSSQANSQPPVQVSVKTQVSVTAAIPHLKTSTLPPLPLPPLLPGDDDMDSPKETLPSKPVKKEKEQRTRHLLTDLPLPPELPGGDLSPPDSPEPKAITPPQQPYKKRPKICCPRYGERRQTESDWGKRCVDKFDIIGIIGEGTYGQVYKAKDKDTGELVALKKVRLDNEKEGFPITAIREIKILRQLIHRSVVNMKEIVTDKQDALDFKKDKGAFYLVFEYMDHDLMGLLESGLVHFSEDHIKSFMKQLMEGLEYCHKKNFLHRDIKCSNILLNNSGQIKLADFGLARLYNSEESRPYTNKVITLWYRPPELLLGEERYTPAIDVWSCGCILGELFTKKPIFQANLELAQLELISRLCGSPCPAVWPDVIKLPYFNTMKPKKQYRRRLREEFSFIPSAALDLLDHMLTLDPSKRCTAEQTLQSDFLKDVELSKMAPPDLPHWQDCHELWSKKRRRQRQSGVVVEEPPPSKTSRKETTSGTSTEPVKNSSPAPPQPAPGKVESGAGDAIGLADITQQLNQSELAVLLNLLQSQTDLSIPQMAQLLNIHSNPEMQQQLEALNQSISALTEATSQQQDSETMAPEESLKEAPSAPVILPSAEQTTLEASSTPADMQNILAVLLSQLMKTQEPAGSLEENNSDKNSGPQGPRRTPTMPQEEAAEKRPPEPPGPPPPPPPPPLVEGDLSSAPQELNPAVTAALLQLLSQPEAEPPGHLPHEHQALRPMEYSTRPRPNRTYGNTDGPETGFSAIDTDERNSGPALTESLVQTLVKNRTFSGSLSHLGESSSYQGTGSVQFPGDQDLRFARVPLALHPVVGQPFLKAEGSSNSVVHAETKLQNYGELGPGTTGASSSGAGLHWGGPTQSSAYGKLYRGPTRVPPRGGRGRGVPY
CDK12/Cyclin K, sequence (O75909 whole entry partner): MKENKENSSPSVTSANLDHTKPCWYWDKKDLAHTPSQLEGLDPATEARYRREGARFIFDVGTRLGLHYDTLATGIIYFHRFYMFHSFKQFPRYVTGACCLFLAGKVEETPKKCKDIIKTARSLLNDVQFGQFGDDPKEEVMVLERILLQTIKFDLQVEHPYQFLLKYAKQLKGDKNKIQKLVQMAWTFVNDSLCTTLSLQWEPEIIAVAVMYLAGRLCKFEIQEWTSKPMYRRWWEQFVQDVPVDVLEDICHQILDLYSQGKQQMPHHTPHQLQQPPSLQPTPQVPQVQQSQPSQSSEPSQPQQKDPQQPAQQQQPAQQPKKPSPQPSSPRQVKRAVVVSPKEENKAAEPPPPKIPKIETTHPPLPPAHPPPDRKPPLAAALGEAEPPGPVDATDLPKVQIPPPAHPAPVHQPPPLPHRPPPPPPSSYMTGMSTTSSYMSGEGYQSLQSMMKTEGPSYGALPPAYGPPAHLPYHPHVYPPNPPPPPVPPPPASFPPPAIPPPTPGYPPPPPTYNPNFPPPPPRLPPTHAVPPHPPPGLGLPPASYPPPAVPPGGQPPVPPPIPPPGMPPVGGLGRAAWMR
CDK8/Cyclin C, sequence (P49336 whole entry): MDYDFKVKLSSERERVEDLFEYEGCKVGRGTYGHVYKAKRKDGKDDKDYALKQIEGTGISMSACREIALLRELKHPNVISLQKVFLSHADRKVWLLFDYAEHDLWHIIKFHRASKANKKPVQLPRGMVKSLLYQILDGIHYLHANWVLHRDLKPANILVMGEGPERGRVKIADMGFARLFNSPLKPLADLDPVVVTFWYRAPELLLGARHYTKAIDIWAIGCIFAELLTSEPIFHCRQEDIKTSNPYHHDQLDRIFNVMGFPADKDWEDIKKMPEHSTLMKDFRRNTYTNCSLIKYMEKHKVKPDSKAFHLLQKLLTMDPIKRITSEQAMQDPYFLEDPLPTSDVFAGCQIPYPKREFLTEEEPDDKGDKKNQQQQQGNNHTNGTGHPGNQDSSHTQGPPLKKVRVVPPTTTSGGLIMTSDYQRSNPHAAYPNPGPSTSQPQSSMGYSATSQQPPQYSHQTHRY
CDK8/Cyclin C, sequence (P24863 whole entry partner): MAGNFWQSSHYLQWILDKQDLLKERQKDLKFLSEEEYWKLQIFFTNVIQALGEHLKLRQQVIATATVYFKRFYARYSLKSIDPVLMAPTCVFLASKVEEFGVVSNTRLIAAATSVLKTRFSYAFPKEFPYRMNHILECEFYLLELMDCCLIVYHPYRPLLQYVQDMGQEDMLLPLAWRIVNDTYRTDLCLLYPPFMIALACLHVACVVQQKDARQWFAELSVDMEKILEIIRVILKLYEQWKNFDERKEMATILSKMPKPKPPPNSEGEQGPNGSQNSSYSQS
CDK6/Cyclin D1, sequence (Q00534 whole entry): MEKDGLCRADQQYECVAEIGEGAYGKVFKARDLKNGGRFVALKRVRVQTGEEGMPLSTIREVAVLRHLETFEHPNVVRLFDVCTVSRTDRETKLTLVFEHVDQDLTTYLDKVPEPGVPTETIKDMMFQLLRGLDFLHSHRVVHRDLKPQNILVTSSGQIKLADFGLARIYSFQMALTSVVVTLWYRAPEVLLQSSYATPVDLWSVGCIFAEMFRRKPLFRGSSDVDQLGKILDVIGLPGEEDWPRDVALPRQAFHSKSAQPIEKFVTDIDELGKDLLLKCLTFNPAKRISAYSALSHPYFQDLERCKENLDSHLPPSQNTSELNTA
CDK6/Cyclin D1, sequence (P24385 whole entry partner): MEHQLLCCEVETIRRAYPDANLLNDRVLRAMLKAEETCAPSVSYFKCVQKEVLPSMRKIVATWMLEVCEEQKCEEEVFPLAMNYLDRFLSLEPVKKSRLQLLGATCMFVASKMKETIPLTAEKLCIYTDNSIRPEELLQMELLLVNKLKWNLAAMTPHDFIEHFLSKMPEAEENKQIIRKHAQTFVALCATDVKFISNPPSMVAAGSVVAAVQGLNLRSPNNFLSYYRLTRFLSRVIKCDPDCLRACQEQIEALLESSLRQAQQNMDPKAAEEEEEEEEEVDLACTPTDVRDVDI
CDK13/Cyclin K, sequence (O75909 whole entry): as the sequence (O75909 whole entry partner) above
CDK13/Cyclin K, sequence (Q14004 other isoform, or with tags, fused parts or gaps): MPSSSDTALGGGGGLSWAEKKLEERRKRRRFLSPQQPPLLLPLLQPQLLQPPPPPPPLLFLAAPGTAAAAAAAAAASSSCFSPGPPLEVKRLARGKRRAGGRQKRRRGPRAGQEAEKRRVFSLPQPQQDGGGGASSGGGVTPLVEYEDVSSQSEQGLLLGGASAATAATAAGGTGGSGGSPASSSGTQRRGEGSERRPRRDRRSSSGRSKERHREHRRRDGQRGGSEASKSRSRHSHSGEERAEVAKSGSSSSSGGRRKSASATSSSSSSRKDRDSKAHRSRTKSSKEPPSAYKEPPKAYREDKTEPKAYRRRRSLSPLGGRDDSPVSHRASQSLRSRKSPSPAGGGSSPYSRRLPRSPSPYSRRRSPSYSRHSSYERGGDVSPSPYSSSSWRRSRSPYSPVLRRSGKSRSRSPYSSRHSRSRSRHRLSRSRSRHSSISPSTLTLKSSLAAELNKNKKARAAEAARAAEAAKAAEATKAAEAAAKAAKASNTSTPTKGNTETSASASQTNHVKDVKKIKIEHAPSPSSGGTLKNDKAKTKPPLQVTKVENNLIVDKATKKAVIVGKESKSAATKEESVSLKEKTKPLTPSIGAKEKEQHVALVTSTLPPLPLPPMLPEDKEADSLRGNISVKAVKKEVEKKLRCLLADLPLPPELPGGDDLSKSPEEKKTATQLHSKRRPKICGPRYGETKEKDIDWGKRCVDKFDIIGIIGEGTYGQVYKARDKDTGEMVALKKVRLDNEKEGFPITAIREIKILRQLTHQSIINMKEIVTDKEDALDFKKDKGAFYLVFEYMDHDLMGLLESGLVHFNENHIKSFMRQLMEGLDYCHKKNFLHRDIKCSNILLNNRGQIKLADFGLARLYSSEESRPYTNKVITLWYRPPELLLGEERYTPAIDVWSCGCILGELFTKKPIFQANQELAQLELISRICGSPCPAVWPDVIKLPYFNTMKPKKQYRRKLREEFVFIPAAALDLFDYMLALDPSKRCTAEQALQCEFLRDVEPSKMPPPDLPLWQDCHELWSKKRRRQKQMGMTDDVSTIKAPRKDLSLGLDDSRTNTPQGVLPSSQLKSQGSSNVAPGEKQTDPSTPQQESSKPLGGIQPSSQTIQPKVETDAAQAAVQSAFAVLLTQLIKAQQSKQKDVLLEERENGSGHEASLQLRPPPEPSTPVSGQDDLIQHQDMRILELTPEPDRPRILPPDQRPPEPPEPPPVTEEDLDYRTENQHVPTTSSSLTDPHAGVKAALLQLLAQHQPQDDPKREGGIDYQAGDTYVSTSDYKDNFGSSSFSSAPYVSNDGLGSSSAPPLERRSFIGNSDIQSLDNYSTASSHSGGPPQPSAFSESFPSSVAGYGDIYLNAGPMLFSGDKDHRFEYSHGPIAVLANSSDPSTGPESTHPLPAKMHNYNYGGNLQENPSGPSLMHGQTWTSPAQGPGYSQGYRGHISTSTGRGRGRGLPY

CC(C)c1cnn2c(NCc3ccccc3)cc(N[C@@H](CO)[C@H](O)CO)nc12 [BS-194]
Inhibition at 10µM (%) Replicate 1 [1]: 31.5% | Inhibition at 10µM (%) Replicate 2 [1]: 34.8% | Inhibition at 10µM (%) Replicate 1 [2]: 38.0% | Inhibition at 10µM (%) Replicate 2 [2]: 19.3% | Inhibition at 10µM (%) Average ([2]; average of replicates): 28.6% | Inhibition at 10µM (%) Replicate 1 ([3]; 10µM): 90.9% | Inhibition at 10µM (%) Replicate 2 ([3]; 10µM): 93.7% | Inhibition at 10µM (%) Average ([3]; 10µM, average of replicates): 92.3% | IC50 [3, 19]: 61 nM | IC50 [3, 20]: 79 nM | IC50 [3, 21]: 42 nM | Inhibition at 10µM (%) Replicate 1 ([4]; 10µM): 82.0% | Inhibition at 10µM (%) Replicate 2 ([4]; 10µM): 83.8% | IC50 [4, 19]: 630 nM | IC50 [4, 20]: 495 nM | IC50 [4, 21]: 770 nM | Inhibition at 10µM (%) Replicate 1 ([5]; 10µM): 80.3% | Inhibition at 10µM (%) Replicate 2 ([5]; 10µM): 90.8% | Inhibition at 10µM (%) Average ([5]; 10µM, average of replicates): 85.6% | IC50 [5, 19]: 480 nM | IC50 [5, 20]: 448 nM | IC50 [5, 21]: 520 nM | Inhibition at 10µM (%) Replicate 1 ([6]; 10µM): 77.5% | Inhibition at 10µM (%) Replicate 2 ([6]; 10µM): 82.4% | Inhibition at 10µM (%) Average ([6]; 10µM, average of replicates): 80.0% | IC50 [6, 19]: 550 nM | IC50 [6, 20]: 485 nM | IC50 [6, 21]: 620 nM | Inhibition at 10µM (%) Replicate 1 ([7]; 10µM): 84.5% | Inhibition at 10µM (%) Replicate 2 ([7]; 10µM): 68.7% | Inhibition at 10µM (%) Average ([7]; 10µM, average of replicates): 76.6% | IC50 [7, 19]: 520 nM | IC50 [7, 20]: 530 nM | IC50 [7, 21]: 500 nM | Inhibition at 10µM (%) Replicate 1 ([8]; 10µM): 81.4% | Inhibition at 10µM (%) Replicate 2 ([8]; 10µM): 84.3% | Inhibition at 10µM (%) Average ([8]; 10µM, average of replicates): 82.8% | IC50 [8, 19]: 870 nM | IC50 [8, 20]: 840 nM | IC50 [8, 21]: 900 nM | Inhibition at 10µM (%) Replicate 1 ([9]; 10µM): 72.5% | Inhibition at 10µM (%) Replicate 2 ([9]; 10µM): 77.7% | Inhibition at 10µM (%) Average ([9]; 10µM, average of replicates): 75.1% | IC50 [9, 19]: 170 nM | IC50 [9, 20]: 297 nM | IC50 [9, 21]: 50 nM | Inhibition at 10µM (%) Replicate 1 [10]: 38.2% | Inhibition at 10µM (%) Replicate 2 [10]: 46.4% | Inhibition at 10µM (%) Average ([10]; average of replicates): 42.3% | Inhibition at 10µM (%) Replicate 1 [11]: 99.1% | Inhibition at 10µM (%) Replicate 2 [11]: 98.0% | Inhibition at 10µM (%) Average ([11]; average of replicates): 98.5% | Inhibition at 10µM (%) Replicate 1 [12]: 17.3% | Inhibition at 10µM (%) Replicate 2 [12]: 10.7% | Inhibition at 10µM (%) Average ([12]; average of replicates): 14.0% | Inhibition at 10µM (%) Replicate 1 ([13]; 10µM): 83.0% | Inhibition at 10µM (%) Replicate 2 ([13]; 10µM): 87.3% | Inhibition at 10µM (%) Average ([13]; 10µM, average of replicates): 85.2% | IC50 [13, 19]: 430 nM | IC50 [13, 20]: 270 nM | IC50 [13, 21]: 580 nM | Inhibition at 10µM (%) Replicate 1 ([14]; 10µM): 52.0% | Inhibition at 10µM (%) Replicate 2 ([14]; 10µM): 55.6% | Inhibition at 10µM (%) Average ([14]; 10µM, average of replicates): 53.8% | IC50 ([14]; n=2 average to 2 significant figures, read-out: IC50 (nM) Average*): 350 nM | IC50 [14, 20]: 187 nM | IC50 [14, 21]: 510 nM | Inhibition at 10µM (%) Replicate 1 ([15]; 10µM): 96.7% | Inhibition at 10µM (%) Replicate 2 ([15]; 10µM): 97.8% | Inhibition at 10µM (%) Average ([15]; 10µM, average of replicates): 97.3% | IC50 [15, 19]: 7.8 nM | IC50 [15, 20]: 6.9 nM | IC50 [15, 21]: 8.6 nM | Inhibition at 10µM (%) Replicate 1 [16]: 16.5% | Inhibition at 10µM (%) Replicate 2 [16]: 18.5% | Inhibition at 10µM (%) Average ([16]; average of replicates): 17.5% | Inhibition at 10µM (%) Replicate 1 [17]: 30.3% | Inhibition at 10µM (%) Replicate 2 [17]: 21.0% | Inhibition at 10µM (%) Average ([17]; average of replicates): 25.6% | Inhibition at 10µM (%) Replicate 1 [18]: 28.1% | Inhibition at 10µM (%) Replicate 2 [18]: 22.4% | Inhibition at 10µM (%) Average ([18]; average of replicates): 25.2%
